Measured values reported in PubChem BioAssay AID248 (DTP/NCI, 2004).
Values joined by “and” are separate entries in the source; they are usually repeats but may differ in a detail not shown here. Identical values can stand only once. Toxic doses and inconclusive results are not listed.

Tested on: L1210 leukemia ip in BDF1 mice, survival T/C
Test: NCI In Vivo Anticancer Drug Screen. Data for tumor model L1210 Leukemia (intraperitoneal) in B6D2F1 (BDF1) mice
Details: endpoint: mean survival time, higher = longer survival
In short: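 Value reflects the ratio of survival in compound-treated mice to survival in vehicle-treated controls, with both groups carrying the same transplanted tumor.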

[1] = dose: 12.5 mg/kg/injection, schedule: Q04DX003 (ip), vehicle: Klucel (hydroxypropylcellulose) (HPC)
[2] = dose: 25.0 mg/kg/injection, schedule: Q04DX003 (ip), vehicle: Klucel (hydroxypropylcellulose) (HPC)
[3] = dose: 50.0 mg/kg/injection, schedule: Q04DX003 (ip), vehicle: Klucel (hydroxypropylcellulose) (HPC)
[4] = dose: 100.0 mg/kg/injection, schedule: Q01DX001 (ip), vehicle: saline
[5] = dose: 200.0 mg/kg/injection, schedule: Q01DX001 (ip), vehicle: saline
[6] = dose: 400.0 mg/kg/injection, schedule: Q01DX001 (ip), vehicle: saline
[7] = dose: 50.0 mg/kg/injection, schedule: Q01DX001 (ip), vehicle: Klucel (hydroxypropylcellulose) (HPC)
[8] = dose: 100.0 mg/kg/injection, schedule: Q01DX001 (ip), vehicle: Klucel (hydroxypropylcellulose) (HPC)
[9] = dose: 200.0 mg/kg/injection, schedule: Q01DX001 (ip), vehicle: Klucel (hydroxypropylcellulose) (HPC)
[10] = dose: 100.0 mg/kg/injection, schedule: Q01DX009 (ip), vehicle: saline with Tween-80
[11] = dose: 200.0 mg/kg/injection, schedule: Q01DX009 (ip), vehicle: saline with Tween-80
[12] = dose: 100.0 mg/kg/injection, schedule: Q01DX001 (ip), vehicle: other
[13] = dose: 200.0 mg/kg/injection, schedule: Q01DX001 (ip), vehicle: other
[14] = dose: 400.0 mg/kg/injection, schedule: Q01DX001 (ip), vehicle: other

BrCCCC[P+](c1ccccc1)(c1ccccc1)c1ccccc1
T/C [1]: 95 % of control | T/C [2]: 106 % of control | T/C (dose: 50.0 mg/kg/injection, schedule: Q01DX001 (ip), vehicle: saline): 107 % of control | T/C [3]: 98 % of control | T/C [4]: 110 % of control

NC(=O)N/N=C1\CCCC(CCC(=O)O)C1 (stereo unspecified)
T/C (dose: 75.0 mg/kg/injection, schedule: Q01DX009 (ip), vehicle: other): 101 % of control | T/C [4]: 89 % of control | T/C (dose: 150.0 mg/kg/injection, schedule: Q01DX009 (ip), vehicle: other): 93 % of control | T/C [5]: 108 % of control | T/C (dose: 300.0 mg/kg/injection, schedule: Q01DX009 (ip), vehicle: other): 94 % of control | T/C [6]: 100 % of control

Cc1ccc2nc(C)ccc2c1
T/C [7]: 101 % of control | T/C [8]: 109 % of control | T/C [9]: 107 % of control

O=C(O)COC(C[N+](=O)[O-])C(Cl)(Cl)Cl (stereo unspecified)
T/C [10]: 95 % of control | T/C [11]: 92 % of control | T/C (dose: 400.0 mg/kg/injection, schedule: Q01DX009 (ip), vehicle: saline with Tween-80): 88 % of control

COc1ccc(N=Cc2ccccc2O)cc1.[Co]
T/C [12]: 96 % of control | T/C [13]: 102 % of control | T/C [14]: 105 % of control

CCOP(=O)(OCC)C1c2cc(Cl)ccc2-c2c(Cl)cc(Cl)cc21 (stereo unspecified)
T/C (dose: 15.0 mg/kg/injection, schedule: Q01DX001 (ip), vehicle: saline): 103 % of control | T/C (dose: 30.0 mg/kg/injection, schedule: Q01DX001 (ip), vehicle: saline): 98 % of control | T/C (dose: 60.0 mg/kg/injection, schedule: Q01DX001 (ip), vehicle: saline): 103 % of control

CC1(C)CN1P(=O)(N1CC1(C)C)N1CC1(C)C (stereo unspecified)
T/C (dose: 1.25 mg/kg/injection, schedule: Q01DX009 (ip), vehicle: saline): 105 % of control | T/C (dose: 2.5 mg/kg/injection, schedule: Q01DX009 (ip), vehicle: saline): 111 % of control | T/C (dose: 5.0 mg/kg/injection, schedule: Q01DX009 (ip), vehicle: saline): 107 % of control | T/C (dose: 6.0 mg/kg/injection, schedule: Q01DX009 (ip), vehicle: saline): 182 % of control | T/C (dose: 12.0 mg/kg/injection, schedule: Q01DX009 (ip), vehicle: saline): 151 % of control | T/C (dose: 20.0 mg/kg/injection, schedule: Q01DX009 (ip), vehicle: saline): 194 % of control | T/C (dose: 22.0 mg/kg/injection, schedule: Q01DX009 (ip), vehicle: saline): 222 % of control | T/C (dose: 33.0 mg/kg/injection, schedule: Q01DX009 (ip), vehicle: saline): 213 % of control | T/C (dose: 40.0 mg/kg/injection, schedule: Q01DX009 (ip), vehicle: saline): 269 % of control | T/C (dose: 50.0 mg/kg/injection, schedule: Q01DX009 (ip), vehicle: saline): 204 % of control | T/C (dose: 75.0 mg/kg/injection, schedule: Q01DX009 (ip), vehicle: saline): 95 % of control | T/C (dose: 112.5 mg/kg/injection, schedule: Q01DX001 (ip), vehicle: saline): 184 % of control | T/C (dose: 150.0 mg/kg/injection, schedule: Q01DX001 (ip), vehicle: saline): 225 % of control and 86 % of control

COc1ccccc1-n1c(O)c(N=Nc2ccc(Cl)cc2)c(=O)n(-c2ccc(I)cc2)c1=S
T/C (dose: 37.5 mg/kg/injection, schedule: Q01DX001 (ip), vehicle: Klucel (hydroxypropylcellulose) (HPC)): 94 % of control | T/C (dose: 75.0 mg/kg/injection, schedule: Q01DX001 (ip), vehicle: Klucel (hydroxypropylcellulose) (HPC)): 94 % of control | T/C (dose: 150.0 mg/kg/injection, schedule: Q01DX001 (ip), vehicle: Klucel (hydroxypropylcellulose) (HPC)): 90 % of control

CCCCN(C)/N=N/c1nn[nH]n1
T/C (dose: 100.0 mg/kg/injection, schedule: Q04DX002 (ip), vehicle: Klucel (hydroxypropylcellulose) (HPC)): 92 % of control | T/C (dose: 400.0 mg/kg/injection, schedule: Q04DX002 (ip), vehicle: Klucel (hydroxypropylcellulose) (HPC)): 113 % of control

O=C(NCCF)NC1CCSCC1
T/C [12]: 112 % of control | T/C [13]: 103 % of control | T/C [14]: 98 % of control

COC(=O)C12CCc3cc(OC)ccc3C1=CC(=O)C2 (stereo unspecified)
T/C (dose: 100.0 mg/kg/injection, schedule: Q04DX003 (ip), vehicle: saline sonified): 101 % of control | T/C (dose: 200.0 mg/kg/injection, schedule: Q04DX003 (ip), vehicle: saline sonified): 95 % of control | T/C (dose: 400.0 mg/kg/injection, schedule: Q04DX003 (ip), vehicle: saline sonified): 94 % of control

CN(C)N=Nc1cn(C)c(=O)n(C)c1=O
T/C (dose: 150.0 mg/kg/injection, schedule: Q04DX003 (ip), vehicle: water): 106 % of control

CNc1ccc(C(=O)NC(CCC(=O)O)C(=O)O)cc1[N+](=O)[O-] (stereo unspecified)
T/C (dose: 100.0 mg/kg/injection, schedule: Q04DX003 (ip), vehicle: saline): 105 % of control | T/C (dose: 200.0 mg/kg/injection, schedule: Q04DX003 (ip), vehicle: saline): 94 % of control | T/C (dose: 400.0 mg/kg/injection, schedule: Q04DX003 (ip), vehicle: saline): 103 % of control

O=C(N/N=C/c1ccco1)c1ccccc1O
T/C (dose: 50.0 mg/kg/injection, schedule: Q01DX009 (ip), vehicle: saline with Tween-80): 108 % of control | T/C [10]: 102 % of control | T/C [11]: 97 % of control

c1ccc2c[s+]ccc2c1
T/C (dose: 100.0 mg/kg/injection, schedule: Q04DX002 (ip), vehicle: saline): 90 % of control | T/C (dose: 200.0 mg/kg/injection, schedule: Q04DX002 (ip), vehicle: saline): 94 % of control | T/C (dose: 400.0 mg/kg/injection, schedule: Q04DX002 (ip), vehicle: saline): 103 % of control

CN=Cc1ccccc1O.CN=Cc1ccccc1O.[Cu+2]
T/C (dose: 4.68 mg/kg/injection, schedule: Q01DX009 (ip), vehicle: acetone): 94 % of control | T/C (dose: 9.37 mg/kg/injection, schedule: Q01DX009 (ip), vehicle: acetone): 92 % of control | T/C (dose: 18.75 mg/kg/injection, schedule: Q01DX009 (ip), vehicle: acetone): 90 % of control | T/C (dose: 18.75 mg/kg/injection, schedule: Q04DX003 (ip), vehicle: acetone): 95 % of control | T/C (dose: 37.5 mg/kg/injection, schedule: Q04DX003 (ip), vehicle: acetone): 92 % of control | T/C (dose: 75.0 mg/kg/injection, schedule: Q01DX001 (ip), vehicle: acetone): 92 % of control

Cc1ccc(-n2c(O)c(N=Nc3ccc(Cl)cc3)c(=O)n(-c3ccc(Cl)cc3)c2=S)cc1
T/C [7]: 100 % of control | T/C [8]: 105 % of control | T/C [9]: 95 % of control

Oc1cc[c]([Hg][Cl])cc1
T/C [1]: 105 % of control | T/C [2]: 111 % of control | T/C [3]: 99 % of control

O=C1OCN(c2ccccc2)/C1=C/c1ccccc1
T/C [4]: 89 % of control | T/C [5]: 94 % of control | T/C [6]: 93 % of control

CC(=O)N(C)c1ccc(/C=C2\C=Cc3ccccc32)cc1
T/C (dose: 50.0 mg/kg/injection, schedule: Q01DX001 (ip), vehicle: carboxymethylcellulose (CMC)): 96 % of control | T/C (dose: 100.0 mg/kg/injection, schedule: Q01DX001 (ip), vehicle: carboxymethylcellulose (CMC)): 98 % of control | T/C (dose: 200.0 mg/kg/injection, schedule: Q01DX001 (ip), vehicle: carboxymethylcellulose (CMC)): 96 % of control | T/C (dose: 400.0 mg/kg/injection, schedule: Q01DX001 (ip), vehicle: carboxymethylcellulose (CMC)): 96 % of control

Cc1ccnc(NC(=O)Nc2cc(C)ccc2C)c1
T/C (dose: 100.0 mg/kg/injection, schedule: Q01DX009 (ip), vehicle: Klucel (hydroxypropylcellulose) (HPC)): 94 % of control | T/C (dose: 200.0 mg/kg/injection, schedule: Q01DX009 (ip), vehicle: Klucel (hydroxypropylcellulose) (HPC)): 91 % of control | T/C (dose: 400.0 mg/kg/injection, schedule: Q01DX009 (ip), vehicle: Klucel (hydroxypropylcellulose) (HPC)): 92 % of control

CCCCC#C/C(C)=N\Nc1ccc([N+](=O)[O-])cc1[N+](=O)[O-]
T/C (dose: 50.0 mg/kg/injection, schedule: Q04DX002 (ip), vehicle: saline with Tween-80): 98 % of control | T/C (dose: 100.0 mg/kg/injection, schedule: Q04DX002 (ip), vehicle: saline with Tween-80): 173 % of control
